Data published in patent US20250034135A1, “ANTI-APOPTOTIC PROTEIN BCL-2 INHIBITOR, PHARMACEUTICAL COMPOSITION AND USES THEREOF” (HANGZHOU HEALZEN THERAPEUTICS CO., LTD., priority 2021, published 2025).
Like-named read-outs stand apart in the source and are kept apart here.

Assays:
RS4; 11 cells = assay: Tumor proliferation inhibitory activity test (MTS) on RS4; 11; type: cell-based; conditions: Homo sapiens, RS4-11, 72 h, 3 days incubation
How it was run: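 RS4;11 cells were exposed to serially diluted compound (0.2% DMSO control) for 3 days at 37 °C/5% CO2, followed by MTS for 3–4 h. Read-out was OD490−OD690, and inhibition was calculated relative to the DMSO and blank wells.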

human platelets = assay: Platelet viability test (CTG); type: cell-based; conditions: CTG after 24 h
Experimental: After 10 mL of platelet-rich plasma was added to 30 mL of ACD-A solution and uniformly mixed, centrifugation was performed at 1200 g, and the supernatant was discarded; 10 mL of ACD-A solution was added, resuspended, uniformly mixed, and centrifuged at 1200 g for 10 min, and the supernatant was discarded. 5 mL of HEPES-Tyrode's buffer containing 1 μM PGE1 and 0.2 U/mL apyrase was added, slightly inverted, and then centrifuged at 800 g for 5 min, and the supernatant was discarded. 10 mL of HEPES-Tyrode's buffer containing 1 μM PGE1 and 0.2 U/mL apyrase was added, resuspended, and centrifuged at 1000 g for 5 min, and the supernatant was discarded. 2 mL of HEPES-Tyrode's buffer containing 1 μM PGE1+10% FBS-resuspended platelets was added, 200 μL was taken into a centrifuge tube and diluted to 2 mL. Then it was diluted to 1, 0.8, 0.6, 0.4, 0.2, 0.1, 0.08, 0.06, 0.04, 0.02, 0.01 times, the volume was complemented to 100 μL, and 50 μL of CTG reagent was added to detect cell viability. The maximum valid dilution with a fluorescence value not exceeding […] was selected for dilution, 90 μL/well was connected to a 96-well cell plate for chemiluminescence detection. A compound was prepared with HEPES-Tyrode's buffer containing 1 μM of PGE1+10% FBS, and added to the cells, which was gently beaten evenly and detected for cell viability by adding 50 μL CTG after 24 h.

BCL2 (D103Y) = BCL2 (D103Y) (Homo sapiens (Human), UniProt P10415, D103Y); assay: Molecular level activity test of BCL2 (D103Y) (HTRF, binding to Bim peptide); conditions: read-out: BCL-2 (D103Y) (nM) (inhibitory activity, IC50)
How it was run: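 His-tagged recombinant protein mixed with biotinylated BIM peptide and compound (2% DMSO), reacted 1 h. Anti-His and streptavidin-XL665 detection reagents then added and incubated 4 h at room temperature before HTRF read-out of binding inhibition.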

BCL-XL = BCL-XL (Homo sapiens (Human), UniProt Q07817); assay: BCL-XL enzyme molecular level activity test (HTRF, binding to BIM peptide); conditions: binding of BCL-XL to BIM peptide, read-out: BCL-XL inhibitory activity (IC50)
How it was run: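 HTRF binding assay: His-tagged recombinant BCL-XL with biotin-BIM peptide and compound (2% DMSO), 1 h. Anti-His and streptavidin-XL665 detection reagents added, 4 h at room temperature. Excitation 320 nm; 665/615 nm ratio reflects binding, with no-protein background and no-compound full-binding controls.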

BCL2 (G101V) = BCL2 (G101V) (Homo sapiens (Human), UniProt P10415, G101V); assay: Molecular level activity test of anti-apoptotic protein BCL2 (G101V) (HTRF, binding to Bim peptide); conditions: inhibition of BCL2 (G101V) binding to Bim peptide, read-out: BCL-2 (G101V)
How it was run: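 His-tagged recombinant BCL2 (G101V) incubated 1 h with biotin-BIM peptide and compound (2% DMSO), then anti-His and streptavidin-XL665 detection reagents added for 4 h at room temperature. HTRF signal reflects compound effect on BCL2–BIM binding.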

human CYP3A4 enzyme = human CYP3A4 enzyme (Homo sapiens (Human), UniProt P08684); assay: CYP3A4 enzyme inhibitory activity (Vivid CYP3A4 Green screening kit)
Experimental: The inhibitory activity of compounds on human CYP3A4 enzyme was detected using a VIVID™ CYP3A4 GREEN SCRNING KIT reagent kit. The Vivid™ CYP450 screening kit includes a Vivid™ substrate, Vivid™ fluorescence standard, reaction buffer, Vivid™ regeneration system, NADP+ and CYP450 BACULOSOMES™ Plus reagent. Operations were performed following the instructions, and a blank control group was set up without adding any compounds.
The IC50 value of the compounds inhibiting human CYP3A4 enzyme was calculated using Graphpad Prism 7.00 software through the formula Y=100/(1+10^((Log IC50−X)*HillSlope)).

BCL2 = BCL2 (Homo sapiens (Human), UniProt P10415); assay: Molecular level activity test of anti-apoptotic protein BCL2 (HTRF, binding to Bim peptide); conditions: HTRF, binding of BCL2 to Bim peptide; read-out: BCL2 nM (inhibitory activity, IC50)
How it was run: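 HTRF readout; His-BCL2 + biotin-BIM peptide + cpd (2% DMSO in compound addition), 1 h; then anti-His + SA-XL665 detection reagents, 4 h RT.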

[1] = read-out: CYP3A4 (IC50), Vivid CYP3A4 Green screening kit

Chain of human CYP3A4 enzyme (P08684 whole entry): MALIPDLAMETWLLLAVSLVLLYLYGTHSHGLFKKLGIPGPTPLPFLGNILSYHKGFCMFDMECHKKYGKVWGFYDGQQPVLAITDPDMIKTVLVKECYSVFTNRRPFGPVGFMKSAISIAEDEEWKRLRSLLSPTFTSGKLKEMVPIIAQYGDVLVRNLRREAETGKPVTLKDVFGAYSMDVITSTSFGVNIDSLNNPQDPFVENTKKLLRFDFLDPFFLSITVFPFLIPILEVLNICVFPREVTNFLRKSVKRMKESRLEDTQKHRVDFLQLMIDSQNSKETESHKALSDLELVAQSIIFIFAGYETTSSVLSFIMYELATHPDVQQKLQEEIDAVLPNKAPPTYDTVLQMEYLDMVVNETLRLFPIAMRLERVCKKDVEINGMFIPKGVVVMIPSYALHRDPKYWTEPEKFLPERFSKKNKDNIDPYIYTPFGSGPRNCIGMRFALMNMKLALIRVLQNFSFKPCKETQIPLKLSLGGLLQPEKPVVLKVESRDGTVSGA
Chain of BCL-XL (Q07817 whole entry): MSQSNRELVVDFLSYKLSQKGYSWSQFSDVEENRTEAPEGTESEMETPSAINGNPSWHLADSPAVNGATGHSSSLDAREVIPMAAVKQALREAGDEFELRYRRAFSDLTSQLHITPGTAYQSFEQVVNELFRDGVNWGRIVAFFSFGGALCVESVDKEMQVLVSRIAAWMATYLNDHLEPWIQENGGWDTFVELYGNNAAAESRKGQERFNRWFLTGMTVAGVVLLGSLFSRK

Compound | IC50 (RS4; 11 cells) | IC50 (human platelets) | IC50 (BCL2 (D103Y)) | IC50 (BCL-XL; values in nM) | IC50 (BCL2 (G101V)) | IC50 (human CYP3A4 enzyme) | IC50 (BCL2) | IC50 (BCL-XL; values given in μM) | IC50 (human CYP3A4 enzyme; [1])
CC(C)c1ccccc1[C@@H]1CN(Cc2ccc(F)c(F)c2)CCN1C1CC2(CCN(c3cc(Oc4cnc5[nH]ccc5c4)c(C(=O)NS(=O)(=O)c4ccc(NCC5(F)CCOCC5)c([N+](=O)[O-])c4)cc3F)CC2)C1 [compound 190, (R)-2-((1H-pyrrolo[2,3-b]pyrid-5-yl)oxy)-4-(2-(4-(3,4-difluorobenzyl)-2-(2-isopropylphenyl)piperazin-1-yl)-7-azaspiro[3.5]non-7-yl)-5-fluoro-N-((4-(((4-fluorotetrahydro-2H-pyran-4-yl)methyl)amino)-3-nitrophenyl)sulfonyl)benzamide] | < 0.5 nM | > 5000 nM | < 10 nM | > 500 nM | < 10 nM | > 20000 nM | – | – | –
CC(C)c1ccccc1[C@@H]1CCCN1C1CC2(CCN(c3ccc(C(=O)NS(=O)(=O)c4cc([N+](=O)[O-])c(NCC5(F)CCN(C6COC6)CC5)c5[nH]cnc45)c(Oc4cnc5[nH]ccc5c4)c3)CC2)C1 [compound 002] | 0.5 to 1 nM | – | < 10 nM | > 500 nM | < 10 nM | > 20000 nM | < 10 nM | – | –
COc1ccc(CN2CCN(C3CC4(CCN(c5cc(Oc6cnc7[nH]ccc7c6)c(C(=O)NS(=O)(=O)c6cc([N+](=O)[O-])c(NCC7CCOCC7)c7[nH]cnc67)cc5F)CC4)C3)[C@H](c3ccccc3C(C)C)C2)cc1 [compound 263, (R)-2-((1H-pyrrolo[2,3-b]pyrid-5-yl)oxy)-5-fluoro-4-(2-(2-(2-isopropylphenyl)-4-(4-methoxybenzyl)piperazin-1-yl)-7-azaspiro[3.5]non-7-yl)-N-((6-nitro-7-(((tetrahydro-2H-pyran-4-yl)methyl)amino)-1H-benzo[d]imidazol-4-yl)sulfonyl)benzamide] | 0.5 to 1 nM | – | < 10 nM | – | < 10 nM | – | < 10 nM | 1300 nM | > 20000 nM
COc1ccc(CN2CCN(C3CC4(CCN(c5cc(Oc6cnc7[nH]ccc7c6)c(C(=O)NS(=O)(=O)c6ccc(NC[C@H]7COCCO7)c([N+](=O)[O-])c6)cc5F)CC4)C3)[C@H](c3ccccc3C(C)C)C2)cc1 [compound 241, N-((4-((((S)-1,4-dioxan-2-yl)methyl)amino)-3-nitrophenyl)sulfonyl)-2-((1H-pyrrolo[2,3-b]pyrid-5-yl)oxy)-5-fluoro-4-(2-((R)-2-(2-isopropylphenyl)-4-(4-methoxybenzyl)piperazin-1-yl)-7-azaspiro[3.5]non-7-yl)benzamide] | < 0.5 nM | > 5000 nM | < 10 nM | > 500 nM | < 10 nM | – | < 10 nM | – | –
COc1ccc(CN2CCN(C3CC4(CCN(c5cc(Oc6cnc7[nH]ccc7c6)c(C(=O)NS(=O)(=O)c6ccc(NCC7CCOCC7)c([N+](=O)[O-])c6)cc5F)CC4)C3)[C@H](c3ccccc3C(C)C)C2)cc1 [compound 239, (R)-2-((1H-pyrrolo[2,3-b]pyrid-5-yl)oxy)-5-fluoro-4-(2-(2-(2-isopropylphenyl)-4-(4-methoxybenzyl)piperazin-1-yl)-7-azaspiro[3.5]non-7-yl)-N-((3-nitro-4-(((tetrahydro-2H-pyran-4-yl)methyl)amino)phenyl)sulfonyl)benzamide] | < 0.5 nM | > 5000 nM | – | > 500 nM | < 10 nM | – | < 10 nM | – | > 20000 nM
COc1ccc(CN2CCN(C3CC4(CCN(c5cc(Oc6cnc7[nH]ccc7c6)c(C(=O)NS(=O)(=O)c6cc([N+](=O)[O-])c(NCC7(F)CCOCC7)c7[nH]cnc67)cn5)CC4)C3)[C@H](c3ccccc3C(C)C)C2)cc1 [compound 268, (R)-4-((1H-pyrrolo[2,3-b]pyrid-5-yl)oxy)-N-((7-(((4-fluorotetrahydro-2H-pyran-4-yl)methyl)amino)-6-nitro-1H-benzo[d]imidazol-4-yl)sulfonyl)-6-(2-(2-(2-isopropylphenyl)-4-(4-methoxybenzyl)piperazin-1-yl)-7-azaspiro[3.5]non-7-yl) nicotinamide] | < 0.5 nM | – | < 10 nM | > 500 nM | < 10 nM | – | < 10 nM | – | > 20000 nM
COc1cc(CN2CCN(C3CC4(CCN(c5cc(Oc6cnc7[nH]ccc7c6)c(C(=O)NS(=O)(=O)c6ccc(NCC7(F)CCOCC7)c([N+](=O)[O-])c6)cc5F)CC4)C3)[C@H](c3ccccc3C(C)C)C2)ccc1CN(C)C [compound 247, (R)-2-((1H-pyrrolo[2,3-b]pyrid-5-yl)oxy)-4-(2-(4-(4-((dimethylamino)methyl)-3-methoxybenzyl)-2-(2-isopropylphenyl)piperazin-1-yl)-7-azaspiro[3.5]non-7-yl)-5-fluoro-N-((4-(((4-fluorotetrahydro-2H-pyran-4-yl)methyl)amino)-3-nitrophenyl)sulfonyl)benzamide] | 0.5 to 1 nM | > 5000 nM | < 10 nM | > 500 nM | < 10 nM | – | < 10 nM | – | –
CC(C)c1ccccc1[C@@H]1CN(Cc2cnn(C)c2)CCN1C1CC2(CCN(c3cc(Oc4cnc5[nH]ccc5c4)c(C(=O)NS(=O)(=O)c4ccc(NCC5(F)CCOCC5)c([N+](=O)[O-])c4)cc3F)CC2)C1 [compound 209, (R)-2-((1H-pyrrolo[2,3-b]pyrid-5-yl)oxy)-5-fluoro-N-((4-(((4-fluorotetrahydro-2H-pyran-4-yl)methyl)amino)-3-nitrophenyl)sulfonyl)-4-(2-(2-(2-isopropylphenyl)-4-((1-methyl-1H-pyrazole-4-yl)methyl)piperazin-1-yl)-7-azaspiro[3.5]non-7-yl)benzamide] | < 0.5 nM | > 5000 nM | < 10 nM | – | < 10 nM | – | < 10 nM | 1900 nM | > 20000 nM
COc1ccc(CN2CCN(C3CC4(CCN(c5cc(Oc6cnc7[nH]ccc7c6)c(C(=O)NS(=O)(=O)c6cc([N+](=O)[O-])c(NC[C@H]7CC[C@](C)(O)CC7)c7[nH]cnc67)cc5F)CC4)C3)[C@H](c3ccccc3C(C)C)C2)cc1 [compound 262, 2-((1H-pyrrolo[2,3-b]pyrid-5-yl)oxy)-5-fluoro-N-((7-((((1r,4r)-4-hydroxy-4-methylcyclohexyl)methyl)amino)-6-nitro-1H-benzo[d]imidazol-4-yl)sulfonyl)-4-(2-((R)-2-(2-isopropylphenyl)-4-(4-methoxybenzyl)piperazin-1-yl)-7-azaspiro[3.5]non-7-yl)benzamide] | 0.5 to 1 nM | – | < 10 nM | – | < 10 nM | – | < 10 nM | > 1000 nM | > 20000 nM
COc1ccc(CN2CCN(C3CC4(CCN(c5cc(Oc6cnc7[nH]cc(F)c7c6)c(C(=O)NS(=O)(=O)c6ccc(NCC7(F)CCOCC7)c([N+](=O)[O-])c6)cc5F)CC4)C3)[C@H](c3ccccc3C(C)C)C2)cc1 [compound 252, (R)-5-fluoro-2-((3-fluoro-1H-pyrrolo[2,3-b]pyrid-5-yl)oxy)-N-((4-(((4-fluorotetrahydro-2H-pyran-4-yl)methyl)amino)-3-nitrophenyl)sulfonyl)-4-(2-(2-(2-isopropylphenyl)-4-(4-methoxybenzyl)piperazin-1-yl)-7-azaspiro[3.5]non-7-yl)benzamide] | 0.5 to 1 nM | > 5000 nM | < 10 nM | > 500 nM | < 10 nM | – | < 10 nM | – | –
